In PubChem BioAssay (NCI):
Values joined by “and” are separate entries in the source; they are usually repeats but may differ in a detail not shown here. Identical values can stand only once.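 Test compounds were applied to cells in 96-well plates for 48 hours at 5 doses. Here, GI50 denotes the concentration required for 50% inhibition of growth. Definition used: TGI = concentration required for complete inhibition of growth.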

How the values were obtained:
Experiment in all cases: NCI tumour cell line growth inhibition, 48 h
[1] = test system: 786-0 renal
[2] = test system: A498 renal
[3] = test system: A549 NSCLC
[4] = test system: ACHN renal
[5] = test system: BT-549 breast
[6] = test system: CAKI-1 renal
[7] = test system: CCRF-CEM leukemia
[8] = test system: COLO 205 colon
[9] = test system: DU-145 prostate
[10] = test system: EKVX NSCLC
[11] = test system: HCC-2998 colon
[12] = test system: HCT-116 colon
[13] = test system: HCT-15 colon
[14] = test system: HL-60(TB) leukemia
[15] = test system: HOP-62 NSCLC
[16] = test system: HOP-92 NSCLC
[17] = test system: HS 578T breast
[18] = test system: HT29 colon
[19] = test system: IGROV1 ovarian
[20] = test system: K-562 leukemia
[21] = test system: KM12 colon
[22] = test system: LOX IMVI melanoma
[23] = test system: M14 melanoma
[24] = test system: MALME-3M melanoma
[25] = test system: MCF7 breast
[26] = test system: MDA-MB-231 breast
[27] = test system: MDA-MB-435
[28] = test system: MOLT-4 leukemia
[29] = test system: NCI-H226 lung
[30] = test system: NCI-H23 lung
[31] = test system: NCI-H460 lung
[32] = test system: NCI-H522 lung
[33] = test system: NCI/ADR-RES ovarian
[34] = test system: OVCAR-3 ovarian
[35] = test system: OVCAR-4 ovarian
[36] = test system: OVCAR-5 ovarian
[37] = test system: OVCAR-8 ovarian
[38] = test system: PC-3 prostate
[39] = test system: RPMI-8226 leukemia
[40] = test system: RXF 393 renal
[41] = test system: SF-268 CNS
[42] = test system: SF-295 CNS
[43] = test system: SF-539 CNS
[44] = test system: SK-MEL-2 melanoma
[45] = test system: SK-MEL-28 melanoma
[46] = test system: SK-MEL-5 melanoma
[47] = test system: SK-OV-3 ovarian
[48] = test system: SN12C renal
[49] = test system: SNB-19 CNS
[50] = test system: SNB-75 CNS
[51] = test system: SR leukemia
[52] = test system: SW-620 colon
[53] = test system: T-47D breast
[54] = test system: TK-10 renal
[55] = test system: U251 CNS
[56] = test system: UACC-257 melanoma
[57] = test system: UACC-62 melanoma
[58] = test system: UO-31 renal
[59] = test system: MDA-N

CNCCOC(=O)/C=C1/CCC2C(C(O)CC3C(C)(C(=O)OC)CCCC23C)C1C (stereo not given)
GI50 [1]: 0.0166 µM | TGI [1]: 0.0341 µM | GI50 [2]: 0.0161 µM | TGI [2]: 0.0585 µM | GI50 [3]: < 0.01 µM | TGI [3]: 0.0116 µM | GI50 [4]: < 0.01 µM | TGI [4]: 0.0173 µM | GI50 [5]: 0.0242 µM | TGI [5]: 0.064 µM | GI50 [6]: 0.0202 µM | TGI [6]: 0.053 µM | GI50 [7]: 0.0138 µM | TGI [7]: 0.0518 µM | GI50 [8]: 0.0348 µM | TGI [8]: 0.0958 µM | GI50 [9]: 0.016 µM | TGI [9]: 0.0305 µM | GI50 [10]: < 0.0136 µM | TGI [10]: 0.0331 µM | GI50 [11]: 0.0329 µM | TGI [11]: 0.115 µM | GI50 [12]: 0.0158 µM | TGI [12]: 0.0311 µM | GI50 [13]: 0.0258 µM | TGI [13]: 0.0654 µM | GI50 [14]: 0.0261 µM | TGI [14]: 0.0638 µM | GI50 [15]: 0.013 µM | TGI [15]: 0.0259 µM | GI50 [16]: 0.0243 µM | TGI [16]: 0.0764 µM | GI50 [17]: < 0.01 µM | TGI [17]: 0.298 µM | GI50 [18]: 0.0231 µM | TGI [18]: 0.0473 µM | GI50 [19]: 0.0305 µM | TGI [19]: 0.0971 µM | GI50 [20]: 0.0308 µM | TGI [20]: 0.0953 µM | GI50 [21]: 0.0339 µM | TGI [21]: 0.111 µM | GI50 [22]: 0.0192 µM | TGI [22]: 0.042 µM | GI50 [23]: 0.0202 µM | TGI [23]: 0.0424 µM | GI50 [24]: 0.0253 µM | TGI [24]: 0.0599 µM | GI50 [25]: 0.0213 µM | TGI [25]: 0.071 µM | GI50 [26]: 0.0604 µM | TGI [26]: 0.229 µM | GI50 [27]: 0.0289 µM | TGI [27]: 0.0881 µM | GI50 [28]: < 0.01 µM | TGI [28]: 0.0203 µM | GI50 [29]: 0.0191 µM | TGI [29]: 0.0408 µM | GI50 [30]: 0.0153 µM | TGI [30]: 0.0355 µM | GI50 [31]: < 0.01 µM | TGI [31]: 0.019 µM | GI50 [32]: < 0.01 µM | TGI [32]: 0.0203 µM | GI50 [33]: 0.0185 µM | TGI [33]: 0.0378 µM | GI50 [34]: < 0.0139 µM | TGI [34]: 0.0276 µM | GI50 [35]: 0.0183 µM | TGI [35]: 0.034 µM | GI50 [36]: 0.0264 µM | TGI [36]: 0.0693 µM | GI50 [37]: 0.018 µM | TGI [37]: 0.0331 µM | GI50 [38]: 0.0214 µM | TGI [38]: 0.202 µM | GI50 [39]: 0.0248 µM | TGI [39]: 0.0657 µM | GI50 [40]: 0.0156 µM | TGI [40]: 0.0521 µM | GI50 [41]: < 0.01 µM | TGI [41]: 0.02 µM | GI50 [42]: 0.0209 µM | TGI [42]: 0.0452 µM | GI50 [43]: 0.0206 µM | TGI [43]: 0.0408 µM | GI50 [44]: 0.0317 µM | TGI [44]: 0.0805 µM | GI50 [45]: 0.029 µM | TGI [45]: 0.0758 µM | GI50 [46]: 0.0163 µM | TGI [46]: 0.0321 µM | GI50 [47]: 0.0205 µM | TGI [47]: 0.0394 µM | GI50 [48]: < 0.01 µM | TGI [48]: 0.112 µM | GI50 [49]: 0.0428 µM | TGI [49]: 0.152 µM | GI50 [50]: 0.0181 µM | TGI [50]: 0.0397 µM | GI50 [51]: 0.0198 µM | TGI [51]: 0.0553 µM | GI50 [52]: 0.018 µM | TGI [52]: 0.0394 µM | GI50 [53]: 0.0294 µM | TGI [53]: 0.0762 µM | GI50 [54]: 0.0168 µM | TGI [54]: 0.0351 µM | GI50 [55]: 0.0183 µM | TGI [55]: 0.0341 µM | GI50 [56]: 0.0226 µM | TGI [56]: 0.0512 µM | GI50 [57]: 0.0235 µM | TGI [57]: 0.0559 µM | GI50 [58]: 0.0187 µM | TGI [58]: 0.0372 µM

CCCCCCCCCCCCCCCCn1cc[n+](Cc2ccccc2)c1C
GI50 [1]: 0.541 µM and 0.21 µM | TGI [1]: 1.87 µM and 0.621 µM | GI50 [2]: 1.69 µM and 0.421 µM | TGI [2]: 3.94 µM and 1.8 µM | GI50 [3]: 1.15 µM | TGI [3]: 2.57 µM | GI50 [4]: 1.89 µM | TGI [4]: 7 µM | GI50 [7]: 0.401 µM | TGI [7]: 2.48 µM | GI50 [9]: 1.07 µM and 0.235 µM | TGI [9]: 2.3 µM and 1.05 µM | GI50 [10]: 0.703 µM | TGI [10]: 2.28 µM | GI50 [11]: 0.413 µM | TGI [11]: 1.64 µM | GI50 [14]: 0.0496 µM | TGI [14]: 2.06 µM | GI50 [17]: 3.62 µM | TGI [17]: > 100 µM | GI50 [18]: 0.297 µM | TGI [18]: 1.08 µM | GI50 [19]: 1.09 µM | TGI [19]: 2.29 µM | GI50 [21]: 1.36 µM and 0.176 µM | TGI [21]: 2.87 µM and 0.407 µM | GI50 [23]: 0.425 µM | TGI [23]: 1.91 µM | GI50 [24]: 0.809 µM | TGI [24]: 2.61 µM | GI50 [25]: 1.12 µM and 0.289 µM | TGI [25]: 2.39 µM and 0.968 µM | GI50 [26]: 0.0684 µM | TGI [26]: 0.989 µM | GI50 [59]: 0.328 µM | TGI [59]: 1.32 µM | GI50 [28]: 2.46 µM | TGI [28]: > 100 µM | GI50 [30]: 0.361 µM | TGI [30]: 1.8 µM | GI50 [31]: 0.479 µM | TGI [31]: 1.8 µM | GI50 [32]: 0.451 µM | TGI [32]: 1.88 µM | GI50 [33]: 8.02 µM and 1.55 µM | TGI [33]: 48.6 µM and 7.01 µM | GI50 [34]: 0.178 µM and 0.175 µM | TGI [34]: 0.947 µM and 0.49 µM | GI50 [35]: 0.451 µM | TGI [35]: 4.55 µM | GI50 [36]: 1.48 µM | TGI [36]: 3.25 µM | GI50 [39]: 0.104 µM | TGI [39]: 0.444 µM | GI50 [40]: 0.0122 µM | TGI [40]: 0.341 µM | GI50 [41]: 0.548 µM | TGI [41]: 1.77 µM | GI50 [42]: 0.866 µM and 0.263 µM | TGI [42]: 2.28 µM and 1.22 µM | GI50 [43]: 1.67 µM | TGI [43]: 4.36 µM | GI50 [44]: 1.52 µM | TGI [44]: 3.26 µM | GI50 [45]: 1.7 µM and 0.246 µM | TGI [45]: 4.22 µM and 1.35 µM | GI50 [47]: 1.71 µM and 0.5 µM | TGI [47]: 4.67 µM and 1.81 µM | GI50 [48]: 1.07 µM and 0.156 µM | TGI [48]: 2.34 µM and 1.17 µM | GI50 [49]: 0.565 µM | TGI [49]: 2.01 µM | GI50 [50]: 0.262 µM | TGI [50]: 0.899 µM | GI50 [53]: 0.207 µM | TGI [53]: 0.951 µM | GI50 [54]: 0.86 µM | TGI [54]: 2.2 µM | GI50 [56]: 1.27 µM | TGI [56]: 11.2 µM | GI50 [57]: 0.577 µM and 0.232 µM | TGI [57]: 2.01 µM and 1.21 µM | GI50 [58]: 1.49 µM | TGI [58]: 2.99 µM
